The structures appear in SMILES notation. pKi: −log10 of the molar value.

This assay has as its target Adenosylhomocysteinase (Bos taurus). The assay can be described thus: Inhibitory activity against bovine liver S-adenosyl-L-homocysteine hydrolase (AdoHcy) rate of inactivation by NpcA.
In general, pKi refers to the negative decadic logarithm of the Ki, by convention in mol/L. Low readings indicate a high Ki, high ones a low Ki. The compound `Nc1ncnc2c1ncn2[C@@H]1C=C[C@@H](O)[C@H]1O` gave a pKi of 7.31.

`CC[C@H]1C[C@@H](n2cnc3c(N)ncnc32)[C@H](O)[C@@H]1O` had a pKi of 6.23. Compared with the last compound, the pKi is 1.08 log units lower. The figure for `C[C@H]1C[C@@H](n2cnc3c(N)ncnc32)[C@H](O)[C@@H]1O` is 7.57.

As to `Nc1ncnc2c1ncn2[C@@H]1CC[C@@H](O)[C@H]1O` [(1R,2S,3R)-3-(6-amino-9H-purin-9-yl)cyclopentane-1,2-diol], the pKi is 7.92. Turning to `C[C@@H]1C[C@@H](n2cnc3c(N)ncnc32)[C@H](O)[C@@H]1O`, the pKi was 5.30. The figure for `Nc1ncnc2c1ncn2[C@@H]1C[C@H](c2ccccc2)[C@@H](O)[C@H]1O` is 4.17. The figure for `CC1=C[C@@H](n2cnc3c(N)ncnc32)[C@H](O)[C@@H]1O` is 5.04.

As to `C=C[C@H]1C[C@@H](n2cnc3c(N)ncnc32)[C@H](O)[C@@H]1O`, the pKi is 7.66. This pKi lies 2.62 log units higher than the previous one.
